The test system of the data set is adenocarcinoma of the prostate. Put plainly: Human test results: oral treatment of prostate cancer patients with slow release tablets. The class given is in vivo. To be noted: general statement. How it is done:
Diseases that can be beneficially influenced by the present dosage form include in particular benign prostate hyperplasy, cancer, leukemias, cystic fibrosis, AIDS, kidney and liver diseases, thalassemia and urea cycle disorders. For example, the treatment of an adenocarcinoma of the prostate can be carried out by administering twice daily, e.g. in the morning and evening, a pharmaceutical tablet formulation containing 250 mg of sodium 4-phenylbutyrate. […] Treatment may be continued for several month or years until a satisfactory effect is observed or the patient is total free of the disease.
Following are descriptions of treatments and test results obtained from human patients.
This patient presented on Apr. […] Because of progressive bone pains they underwent bilateral orchiectomy in February 1996. They became free of pain until November 1998 when they again suffered bone pains mainly in their back. They were than treated orally twice daily with 250 mg of sodium phenylbutyrate retard tablets according to Example 1. Four weeks later they were free of pain.
This patient presented in March 1997 with a pathological fracture of the 8th thoracic vertebra caused by metastatic destruction. The multiple biopsies of the slightly enlarged prostate was positive for adenocarcinoma on both sides. […] On Apr. 10, 1997 they underwent bilateral orchidectomy. […]

As to `O=C([O-])CCCc1ccccc1.[Na+]` [sodium 4-phenylbutyrate], under “adenocarcinoma of the prostate, tablet with 250 mg twice daily, after treatment of about one month”, the “therapeutic effect (pains)” value is listed as “pains disappear”. For the same compound, where the note is “long period of treatment”, the side effects entry is listed as “no side effects”.

For the origin of these results see patent US7611729B2, “Dosage forms having prolonged active ingredient release” (Lunamed AG, priority 2001, dated 2009).
